Where “and” joins values, the source holds several entries; their conditions need not be identical. Equal entries are not always repeated. Where no end group is shown, it is not given here. Side-chain parts run from the residue outwards. rhodamine‑labelled PEGylated perfluoro‑15‑crown‑5 ether nanoemulsion = not defined here; carboxyfluorescein = N-terminal fluorescence label (CF)
What was measured:
bone marrow neutrophils = assay: In situ labeling of bone marrow neutrophils and tracking after MI, 1H/19F MRI of bone marrow; assay type: in vivo, mouse
Method: For labeling of neutrophils before MI, mice were anesthetized (1.5% isoflurane) and 1 mmol per kg BW PFCs were injected intravenously via the tail vein on 3 consecutive days. Induction of MI was essentially carried out as previously described. For inhibiting the egress of neutrophils from the bone marrow in a subset of experiments, a cocktail of neutralizing antibodies was injected i.p. 1 h before and 4 h after MI (CXCL1, CXCL2, G-CSF, GM-CSF, 50 µg each, Thermo Fisher). To generate neutropenic mice, 48 and 24 h before MI, 500 µg of the Ly6G-depletion antibody (BioXcell, clone 1A8) was injected i.p. in independent experiments.
All experiments were performed with a vertical 9.4 T Bruker AVANCE^III Wide Bore NMR spectrometer (Bruker) driven by ParaVision 5.1 and operating at frequencies of 400.21 MHz for ^1H measurements and 376.54 MHz for ^19F measurements using a Bruker microimaging unit, Micro2.5, with actively shielded gradient sets (1.5 T m^−1). Data were acquired using a 25-mm quadrature ^19F resonator with one channel tunable to both ^1H and ^19F. Mice were anesthetized with 1.5% isoflurane and kept at 37 °C. After acquisition of morphological ^1H images, the resonator was tuned to ^19F, and anatomically matching ^19F images were recorded essentially as described previously. […]
Slice packages were placed in sagittal orientation to cover the complete bone marrow in the tibia and femur in both legs using the following scan details: ^1H RARE, TR = 2,000 ms, FOV = 4.00 × 2.56 cm^2, matrix = 256 × 256, ST = 1 mm, tAcq = 1 min; ^19F RARE, TR = 2,500 ms, FOV = 4.00 × 2.56 cm^2, matrix = 64 × 64, ST = 3 mm, tAcq = 10 min.
Extended Data Fig. 4 Experimental timeline and whole body ^1H/^19F MRI of a ^mNPPFC-treated mouse. a, To label neutrophils within the bone marrow, ^mNPPFCs (or ^ConPFCs as control) were intravenously injected on three consecutive days (day −3, −2, −1) followed by ^1H/^19F MRI of the bone marrow on day 0. Subsequently, MI was induced and bone marrow and the infarcted heart were analyzed by combined ^1H/^19F MRI 24 h later. b, In separate experiments, neutralizing antibodies against CXCL1, CXCL2, G-CSF and GM-CSF were injected intraperitoneally (i. p.; 50 µg) 1 h before and 4 h post induction of MI to inhibit the MI-stimulated egress of neutrophils from the bone marrow and their infiltration into the heart. c, To determine the whole body biodistribution of ^mNPPFCs, ^mNPPFCs were intravenously injected daily over three consecutive days. Afterwards, whole body ^1H/^19F MRI measurements were performed to visualize the labelled neutrophils in the different bone marrow compartments. The bright ^19F spot in the middle represents the liver – an organ known to be as major site of (PFC) nanoparticle deposition.
Extended Data Fig. 5 ^mNPPFC incorporation into the bone marrow and cardiac function after MI. a, Impact of neutrophil depletion on ^mNPPFC incorporation into the bone marrow: For in vivo labeling of bone marrow neutrophils, ^mNPPFCs were injected intravenously and 24 h later the ^19F signal within the femur and tibia was determined (gray). […] The marrow mainly belongs to the diaphysis whereas the growth of the bones takes place at the inner and outer epiphysis. […]

murine neutrophils = assay: Ex vivo mNPPFC uptake by neutrophils from mice with Matrigel-LPS plug, flow cytometry; assay type: cell-based, mouse; parameters: ex vivo uptake by murine neutrophils, Ctrl - mNPPFCs, raw data: unit not given here; details: for ex vivo uptake by murine neutrophils, Ctrl - mNPPFCs, raw data: Ctrl mice, single samples #1-#5
Method: To induce defined inflammatory foci, we adopted a recently developed model of localized subcutaneous inflammation. To this end, ice-cold Matrigel (Corning) was doped with LPS (1 µg µl^−1; Salmonella typhimurium, Sigma-Aldrich) and subcutaneously (s.c.) implanted into the neck of the mice. Twenty-four hours after implanting the plug, neutrophils were isolated from the blood and incubated ex vivo with ^mNPPFCs or ^ConPFCs. In separate experiments, 24 h after implantation, ^mNPPFCs or ^ConPFCs were injected intravenously, and immune cells were isolated from the blood. In further experiments, 1 d after plug injection, mice received 1 mmol per kg BW ^mNPPFCs, and, 24 h later, the bone marrow was analyzed by ^1H/^19F MRI. Thereafter, mice were killed, and neutrophils were isolated from the bone marrow for determination of cell numbers. In each case, immune cells were analyzed by flow cytometry.
A total of 1 × 10^6 cells were incubated with 10 µl of the emulsion over a period of 80 min at 37 °C. At distinct time points, 50 µl of the samples were transferred into 2 ml of ice-cold MACS buffer and analyzed for rhodamine fluorescence by flow cytometry.

[1] = Liver serum markers after PFC injection; assay type: in vivo, mouse; details: i.v. over 3 consecutive days, 24 h after last injection
Method: ^ConPFCs, ^mNPPFCs (each at 1 mM per kg BW) or saline were injected i.v. over 3 consecutive days. Twenty-four hours after the last injection, mice were killed, and blood samples were withdrawn to determine GLDH, AST, ALP, ALT and bilirubin levels by standard clinical procedures. Furthermore, the liver and spleen were dissected, fixed in formalin and snap frozen. Subsequently, 4-µm cryosections were cut and stained with hematoxylin and eosin as described previously.
Extended Data Fig. 3 Assessment of ^mNPPFC/^ConPFC biodistribution, liver serum markers and histology of liver and spleen. a, Biodistribution of intravenously injected ^mNPPFCs was determined via ^19F MRI measurements at distinct time points after injection (1, 3, 6 and 24 h after injection). Shown are quantification of fluorine signal intensities in the blood, liver and spleen indicating a fast wash-out from the blood accompanied by a strong influx into the liver while signal intensities in the spleen were constant over the entire observation period; a.u. = arbitrary units. b, Serum levels of GLDH (glutamate dehydrogenase), AST (aspartate aminotransferase), ALP (alkaline phosphatase), ALT (alanine aminotransferase) and bilirubin after intravenous application of NaCl as control, ^ConPFCs or ^mNPPFCs. c + d, 4 µm sections of liver (C) and spleen (D) stained with hematoxylin and eosin. Organs were excised and processed for histology 24 h post injection of NaCl (upper row), ^ConPFCs (middle), ^mNPPFCs (lower). Representative liver/spleen images of organs from three different animals are shown. Scale bars indicate 100 µm. Data are mean values ± SD of n = 6 (a), n = 4-6 (b) and n = 6 (c + d) independent experiments. Source data

mNPPFCs: PEGylated rhodamine-labeled perfluoro-15-crown-5 ether nanoemulsion (maleimide PFCs) coupled with murine neutrophil-specific peptide mNP (carboxyfluorescein-DFYKPMPNLRITGGGC([maleimide‑PEG2000‑DSPE-rhodamine‑labelled PEGylated perfluoro‑15‑crown‑5 ether nanoemulsion]); reading uncertain; also: printed as DFYKPMPNLRIT-GGG-C)
19F signal of bone marrow, Post (bone marrow neutrophils; 1H/19F MRI, after MI, panel B raw data, single animals): 384270 and 284234 and 342343 and 246818 and 294364 and 237217 and 352300 | 19F signal of bone marrow, Pre (bone marrow neutrophils; 1H/19F MRI, before MI, panel B raw data, single animals): 555612 and 765758 and 385254 and 440946 and 378880 and 354237 and 356979 and 487088 and 602276 | 19F signal within the femur and tibia (bone marrow) (bone marrow neutrophils; Ctrl (no depletion), 24 h after i.v. mNPPFC injection, individual experiments): 1.88E+06 and 1.21E+06 and 1.06E+06 and 1.73E+06 | change of bone marrow 19F signal 24 h after MI (bone marrow neutrophils; femur and tibia, daily i.v. injections over 3 d before MI): substantial reduction | BM 19F signal post MI normalized to the 19F signals detected before induction of MI (bone marrow neutrophils; mNPPFC-labeled mice, Nabs = plus antibodies against CXCL1, CXCL2, G-CSF, GM-CSF i.p. 1 h before and 4 h post MI, individual experiments): 69.1617 and 64.46 and 69.676 and 82.4597 and 48.7011 and 58.4948 and 73.1944 and 76.1165 | ex vivo uptake by murine neutrophils under LPS-stimulated versus unstimulated conditions (murine neutrophils; 24 h after Matrigel-LPS implantation): more rapid and potent uptake | ex vivo uptake by murine neutrophils, Ctrl - mNPPFCs, raw data (murine neutrophils; time 0): 101 and 127 and 111 and 105 | ex vivo uptake by murine neutrophils, Ctrl - mNPPFCs, raw data (murine neutrophils; time 40): 4266 and 3190 and 3194 and 3820 and 4700 | adverse side effects (liver serum markers, histology of liver and spleen) [1]: neither analysis of liver serum markers (GLDH, AST, ALP, ALT, bilirubin) nor histological examination of the liver and spleen revealed any evidence for adverse side effects

From PMC11357992, “Non-invasive mapping of systemic neutrophil dynamics upon cardiovascular injury” (Nature Cardiovascular Research, 2023)
